{
  "source": "paper PMC8766756",
  "about": "“Insights on Cancer Cell Inhibition, Subcellular Activities, and Kinase Profile of Phenylacetamides Pending 1H-Imidazol-5-One Variants” (Frontiers in Pharmacology, 2022)",
  "key": {"bovine brain tubulin": {"system": "bovine brain tubulin", "assay": "Tubulin polymerization assay (cell-free)", "assay_type": "biochemical", "settings": "10 and 30 µM, compared with KX2-391 (10 µM)", "experimental": "KX2-391 (KX-01), the prototype of KIM-161, is a known powerful tubulin polymerization inhibitor. Consequently, we investigated its effect on tubulin polymerization using a cell-free assay that also included paclitaxel as another positive reference that affects tubulin function through stabilization of tubulin polymers (Figure 9).\nFIGURE 9 Tubulin polymerization assay for KIM-161 at 10 and 30 µM compared to paclitaxel (10 µM) and KX2-391 (10 µM) as positive controls. The negative control (vehicle) contained DMSO (1% v/v). The effect on the tubulin assembly was monitored turbidometrically at 340 nm every 30 s for 60 min at 37°C. Fold inhibition of tubulin polymerization was calculated using the V max value for each reaction. The results represent the mean for three separate experiments.\nThe assembly of purified bovine tubulin was monitored using a kit BK006 purchased from Cytoskeleton Inc. (Denver, CO, USA). The assay was carried out in accordance with the manufacturer's instructions in the tubulin polymerization assay kit manual using the standard assay conditions. The values reported represent the average values from two independent assays. […] Therefore, tubulin assembly was monitored turbidimetrically at 340 nm at 37°C in a Spectramax 340 PC spectrophotometer (Molecular Devices, Sunnyvale, CA, USA). The absorbance was measured at 30-s intervals for 60 min."}, "HCT116 cells": {"system": "HCT116 cells", "assay": "Cytotoxic assay in presence of antioxidant N-acetylcysteine", "assay_type": "cell-based", "settings": "48 h, MTT", "source_text": "Oxidative stress expressed as the reactive oxygen species (ROS) level is an important marker in cell death under the effect of certain cytotoxic drugs. Elevation of ROS may occur as a direct mechanism of some drugs such as Adriamycin ([Kim et al., 2019]) and trans-cinnamaldehyde ([Afanas’ev, 2011]; [Ka et al., 2003]) (safe covalent natural compound) or indirectly by the modulation of certain cellular contents ([Teppo et al., 2017]; [Perillo et al., 2020]). The involvement of ROS elevation and oxidative stress in the cytotoxic activities of KIM-161 on HCT116 was assessed. In this assay, the antioxidant N-acetylcysteine (NAC) was added at a very high concentration (5 mM) to check if it reverses the cytotoxic activities of KIM-161 on HCT116.\nFIGURE 10 Effect of antioxidant pretreatment on viability of HCT116 treated with KIM-161. […] Cell viability was expressed as a percentage of vehicle control and was measured by the MTT assay (average of two independent experiments). Statistical significance was determined by two-way ANOVA using Šídák’s multiple comparisons test. * = p < 0.05; *** = p ≤ 0.001; **** = p < 0.0001.\nHCT116 cells were seeded at a density of 5 × 10^4 cells/well in 96-well plates and left overnight to adhere. […] Cell viability was expressed as a percentage of the vehicle control (1% v/v ethanol) and was assessed using the MTT assay (data are expressed as mean ± SEM). […]"}, "[1]": {"assay": "Stability in mouse liver microsomes", "assay_type": "in vitro ADME", "experimental": "The clearance of KIM-161 in MLM or HLM was determined at 37°C as previously described ([Yang et al., 2007]). Both MLM and HLM were obtained from Merck KGaA (Darmstadt, Germany), Cat. No. M9441 (MLM) and M0317 (HLM). The assays were conducted in triplicate in 96-well deep polypropylene plates. […] At five time points, the reaction mixture aliquots were transferred to 96-shallow well stop plates on ice containing acetonitrile with 0.1 µM propafenone. […] The standard curves for the test compound were generated using five concentrations in triplicate that were processed as above but with zero incubation time. The stop plates were centrifuged at 2000g for 10 min, and then, the supernatant aliquots were transferred to a Waters Aquity® UPLC 700 µL 96-well sample plate with cap mat (Waters, Milford, MA). The amount of the compound remaining in the supernatant was quantified by LC/MS/MS using a Waters Xevo TQ MS (electrospray positive mode) coupled to a Waters Aquity® UPLC (BEH column, C18). Propafenone was used as the internal standard. GraphPad® Prism v.5.04 was used for nonlinear fitting of time course data to generate t1/2 values."}, "[2]": {"assay": "Binding to mouse plasma proteins (equilibrium dialysis)", "assay_type": "in vitro ADME", "settings": "pH 7.4, CD-1 mouse plasma, equilibrium dialysis 22 h, read-out: Mouse plasma protein binding (% free at 37°C)", "experimental": "The equilibrium dialysis method for determining plasma protein binding was performed as previously described using 96-well dialyzer plates with a molecular weight cutoff of 5K (Harvard Apparatus, Holliston, MA) and a dual-plate rotator set to maximum speed (Harvard Apparatus, Holliston, MA) located in a 37°C incubator with a 10% CO2 atmospheric environment. The assays were run in triplicate. KIM-161 was added to CD-1 mouse plasma (Innovative Research, Novi, MI, sodium heparin added as anticoagulant; pH adjusted to 7.4 with 2N HCl on the day of use) in DMSO (final DMSO concentration 0.4%) to give a 10 µM final concentration. The drug/plasma mixture and buffer (Dulbecco's PBS 1X without calcium and magnesium, Mediatech, Inc., Herndon, VA) were placed in their respective sides; the wells were capped; and the plate was placed in the rotator and allowed to dialyze for 22 h. Following dialysis, aliquots of the buffer and plasma mixture were removed and mixed with aliquots of the opposite matrix in 96-well deep plates. The concentrations of the analytes from each side of the dialysis plate were determined by LC/MS/MS on a Waters Xevo TQ instrument as described above using positive electrospray ionization. […] The fraction unbound was calculated by dividing the drug concentration in the buffer side of the dialysis plate by the drug concentration in the plasma side."}},
  "data": [
    {"smiles": "COc1ccc(/C=C2\\N=C(C)N(c3ccc(CC(=O)NCc4ccccc4)cc3)C2=O)cc1", "note": "[Compound 4c, (Z)-N-Benzyl-2-(4-(4-(4-methoxybenzylidene)-2-methyl-5-oxo-4,5-dihydro-1H-imidazol-1-yl)phenyl)acetamide]", "values": [
      {"measurement": "tubulin polymerization inhibition", "setting": "bovine brain tubulin", "result": "much weaker tubulin polymerization inhibition than KX2-391"},
      {"measurement": "change of cytotoxic effect by NAC addition", "setting": "HCT116 cells; HCT116, KIM-161 0.5 µM, NAC 5 mM pretreatment 1 h", "result": "slightly altered"},
      {"measurement": "change of cytotoxic effect by NAC addition", "setting": "HCT116 cells; HCT116, increasing KIM-161 concentration (1.0, 5.0 µM), NAC 5 mM", "result": "higher involvement of this factor in the anticancer effect"},
      {"measurement": "MLM stability", "setting": "[1]; mouse liver microsomes, 37°C, t1/2", "result": 14.8, "unit": "min"},
      {"measurement": "% Remaining in MLM with NADPH", "setting": "[1]; with NADPH, >60 min, listed as KIM-161", "result": "unchanged"},
      {"measurement": "% Remaining in MLM without NADPH", "setting": "[1]; without NADPH, >60 min, listed as KIM-161", "result": "Unchanged >60 min"},
      {"measurement": "fraction unbound at 22 h, 10 µM", "setting": "[2]", "result": 0.05}
    ]}
  ]
}
